{"source": "patent US20210360915A1", "about": "“CRYOPRESERVING COMPOSITIONS” (UNIVERSITY OF WARWICK, priority 2018, published 2021)", "key": {"[1]": {"tested_on": "E. coli", "procedure": "Each component (at the useful cryopreservation concentration) was incubated with E. coli overnight at 4° C. and subsequently the number of colony forming units determined, FIG. 2B."}, "[2]": {"tested_on": "B. subtilis", "test": "B. subtilis colony recovery after 7 freeze/thaw cycles", "format": "cell-based, Bacillus subtilis", "text": "(§1) Bacillus subtilis was chosen as a Gram positive strain and Mycobacterium smegmatis as a Mycobacteria (distinct cell wall compared to other Gram positives) for further analysis. Using the same conditions as for E. coli, the cells were exposed to 7 freeze/thaw cycles and recovered colonies counted, Table 1 and FIG. 4. To enable comparison of the data and to account for the different growth rates of each bacterial strain, the recovered colonies were also normalised to the highest recovery."}, "[3]": {"tested_on": "M. smegmatis", "test": "M. smegmatis colony recovery after 7 freeze/thaw cycles", "format": "cell-based, Mycobacterium smegmatis", "text": "as §1"}, "[4]": {"tested_on": "E. coli", "test": "Post-thaw growth profile of E. coli by OD600", "format": "cell-based, Escherichia coli", "conditions": "7 freeze/thaw cycles in liquid nitrogen, then inoculated into LB media", "text": "This macromolecular cryoprotection solution using ice-inhibiting polymers is clearly suitable for bacteria storage but there are many parameters which can be varied in this system including the molecular weight of the polymers. To enable a large number of conditions to be screened, the post-thaw growth rate of E. coli was also followed by OD600 (turbidity) measurements, which enable higher-throughput measurements. E. coli were frozen with the indicated formulations, and post-thaw inoculated into LB media and their growth monitored.\nThe improvement was most significant in the case of larger PEGs."}, "[5]": {"tested_on": "E. coli", "test": "E. coli colony recovery after 7 freeze/thaw cycles", "format": "cell-based, Escherichia coli", "design": "Mean colonies recovered, E. coli, Total: dose or concentration left out as unconfirmed", "procedure": "E. coli was added to different cryoprotective formulations and then exposed to 7 freeze/thaw cycles from liquid nitrogen (−196° C.) to room temperature (20° C.) and the number of colony forming units determined by growth on agar plates for 16 hours was recorded (see FIG. 2A). This was chosen to mimic laboratory conditions where stocks are often frozen and thawed during use.\nIn some down-stream applications, […].\nas §1"}, "[6]": {"biological_target": "β-Gal (Escherichia coli, UniProt P00722)", "sequence (P00722 2-1024)": "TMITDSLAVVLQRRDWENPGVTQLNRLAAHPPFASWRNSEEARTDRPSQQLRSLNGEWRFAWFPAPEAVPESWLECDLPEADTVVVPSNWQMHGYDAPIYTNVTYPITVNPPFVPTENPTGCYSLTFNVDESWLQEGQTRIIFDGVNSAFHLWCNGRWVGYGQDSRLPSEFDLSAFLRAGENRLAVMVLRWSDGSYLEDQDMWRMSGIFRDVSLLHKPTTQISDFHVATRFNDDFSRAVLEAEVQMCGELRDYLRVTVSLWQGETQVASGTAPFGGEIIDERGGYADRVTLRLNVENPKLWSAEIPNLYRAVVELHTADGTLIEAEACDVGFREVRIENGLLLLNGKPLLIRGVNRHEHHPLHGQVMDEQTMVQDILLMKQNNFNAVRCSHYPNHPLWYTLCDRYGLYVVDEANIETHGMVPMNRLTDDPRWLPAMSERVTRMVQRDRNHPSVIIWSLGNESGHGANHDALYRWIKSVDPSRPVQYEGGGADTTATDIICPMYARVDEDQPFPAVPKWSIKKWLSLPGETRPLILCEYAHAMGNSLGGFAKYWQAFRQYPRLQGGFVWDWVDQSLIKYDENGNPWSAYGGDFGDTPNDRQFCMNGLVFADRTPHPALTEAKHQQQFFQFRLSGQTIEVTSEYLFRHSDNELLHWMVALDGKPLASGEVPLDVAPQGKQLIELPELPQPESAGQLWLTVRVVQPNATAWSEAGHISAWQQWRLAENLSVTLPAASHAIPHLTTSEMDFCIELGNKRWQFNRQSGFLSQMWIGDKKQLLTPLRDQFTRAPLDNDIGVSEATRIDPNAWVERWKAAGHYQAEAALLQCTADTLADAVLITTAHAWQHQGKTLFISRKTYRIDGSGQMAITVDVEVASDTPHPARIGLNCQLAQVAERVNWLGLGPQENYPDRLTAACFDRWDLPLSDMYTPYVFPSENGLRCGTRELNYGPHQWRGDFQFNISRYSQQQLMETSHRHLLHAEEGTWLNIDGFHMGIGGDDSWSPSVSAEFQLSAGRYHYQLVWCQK", "conditions": "1 hour incubation without freeze/thaw", "procedure": "β-Gal activity was determined by a colorimetric assay involving the use of ONPG. Briefly aliquots of 30 μL of 4 mg·mL-1 ONPG were added to wells of a 96 well plate containing 50 μL of 20 μg·mL^−1 B-Gal solution. This was then incubated at room temperature for 5 minutes and quenched by addition of 50 μL of 1M Na2CO3 solution. Absorbance was measured at 420 nm.\nSince under standard laboratory conditions, proteins are normally stored at −80° C. through long periods, we decided to test the levels of protein activity after long term ultra-low temperature conditions."}, "[7]": {"tested_on": "β-galactosidase (β-Gal)", "test": "β-Gal activity recovery after frozen storage (ONPG assay)", "format": "biochemical, bacterial", "conditions": "frozen at −20° C. for 3 days, thawed at 20° C.; PEG, PVP, Trehalose, HES 100 mg·mL^−1, PVA 1 mg·mL^−1", "procedure": "Samples were made in triplicate at the appropriate concentrations and frozen in 1.5 mL tubes by directly placing in a freezer either at −20° C. or −80° C. The samples were then held at this temperature for the indicated time period and then thawed at 20° C.\nAbsorbance was measured at 420 nm. All other methods are in the supporting information.\nAbsorbance was measured at 420 nm.\nActivity was tested after thawing at 20° C. (FIG. 6B)."}, "[8]": {"conditions": "concentrations as in table footnote, ± SD"}, "[9]": {"conditions": "normalised to the highest recovery"}}, "data": [{"molecule": "OCC(O)CO", "note": "[25% Glycerol, glycerol]", "values": [{"measurement": "recovered colonies after overnight incubation with cryoprotectant (toxicity)", "setting": "[1]", "value": "significant reduction in recovered colonies"}, {"measurement": "Mean colonies recovered, B. subtilis, Total", "setting": "[2]; [8]", "value": "93 ± 18.9"}, {"measurement": "Mean colonies recovered, B. subtilis, Normalised", "setting": "[2]; [9]", "value": 35, "unit": "%"}, {"measurement": "Mean colonies recovered, M. smegmatis, Total", "setting": "[3]; [8]", "value": "30 ± 6.0"}, {"measurement": "Mean colonies recovered, M. smegmatis, Normalised", "setting": "[3]; [9]", "value": 88, "unit": "%"}, {"measurement": "post-thaw growth rate (OD600)", "setting": "[4]", "value": "essentially identical growth rates"}, {"measurement": "recovered colonies (colony forming units)", "setting": "[5]; 7 freeze (−196° C.)/thaw (20° C.) cycles, growth on agar plates for 16 hours, PEG/PVA 100 + 1 mg·mL^−1", "value": 15}, {"measurement": "Mean colonies recovered, E. coli, Normalised", "setting": "[5]; 7 freeze/thaw cycles, normalised to the highest recovery", "value": 22, "unit": "%"}, {"measurement": "Mean colonies recovered, E. coli, Total", "setting": "[5]; 7 freeze/thaw cycles, ± SD", "value": "15 ± 2.8"}]}, {"molecule": "OC[C@H]1O[C@H](O[C@H]2O[C@H](CO)[C@@H](O)[C@H](O)[C@H]2O)[C@H](O)[C@@H](O)[C@@H]1O", "note": "[trehalose]", "values": [{"measurement": "β-Gal function after incubation with cryoprotectant", "setting": "[6]", "value": "some negative effects on protein function"}, {"measurement": "protection of β-Gal activity", "setting": "[7]", "value": "protected β-Gal activity"}]}]}
